The assay concerns the target T1, human LPA1 (Homo sapiens, UniProt Q92633).
T1 construct: expressed in transfected cells; host or cells: Chinese hamster ovary (CHO) cells
The assay can be described thus: LPA1 functional antagonist assay (LPA-induced calcium flux). The note with it: read-out: hLPA1 IC50. The assay is classed as cell-based. The method, then: The effectiveness of compounds of the present invention as LPA1 inhibitors can be determined in an LPA1 functional antagonist assay as follows: Chinese hamster ovary cells overexpressing human LPA1 were plated overnight (15,000 cells/well) in poly-D-lysine coated 384-well microplates (Greiner bio-one, Cat #781946) in DMEM/F12 medium (Gibco, Cat #11039). Following overnight culture, cells were loaded with calcium indicator dye (AAT Bioquest Inc, Cat #34601) for 30 minutes at 37° C. The cells were then equilibrated to room temperature for 30 minutes before the assay. Test compounds solubilized in DMSO were transferred to 384 well non-binding surface plates (Corning, Cat #3575) using the Labcyte Echo acoustic dispense and diluted with assay buffer [1×HBSS with calcium/magnesium (Gibco Cat #14025-092), 20 mM HEPES (Gibco Cat #15630-080) and 0.1% fatty acid free BSA (Sigma Cat #A9205)] to a final concentration of 0.5% DMSO. Diluted compounds were added to the cells by FDSS6000 (Hamamatsu) at final concentrations ranging from 0.08 nM to 5 μM. and were then incubated for 20 min at room temperature at which time LPA (Avanti Polar Lipids Cat #857130C) was added at final concentrations of 10 nM to stimulate the cells. […] IC50 values were determined by fitting data to a 4-parameter logistic equation (GraphPad Prism, San Diego Calif.).
(A change in cytosolic calcium serves as a functional read-out for many receptors and channels.)

Setting [1] is: CHO cells overexpressing human LPA1, inhibition of calcium flux induced by 10 nM LPA.

Data on 23 molecules can be found in patent publication US10576062B2, “Carbamoyloxymethyl triazole cyclohexyl acids as LPA antagonists” (Bristol-Myers Squibb Company, priority 2016, dated 2020).

Read-outs that look alike come from different tables or passages of the source.

T1 sequence (Q92633 whole entry): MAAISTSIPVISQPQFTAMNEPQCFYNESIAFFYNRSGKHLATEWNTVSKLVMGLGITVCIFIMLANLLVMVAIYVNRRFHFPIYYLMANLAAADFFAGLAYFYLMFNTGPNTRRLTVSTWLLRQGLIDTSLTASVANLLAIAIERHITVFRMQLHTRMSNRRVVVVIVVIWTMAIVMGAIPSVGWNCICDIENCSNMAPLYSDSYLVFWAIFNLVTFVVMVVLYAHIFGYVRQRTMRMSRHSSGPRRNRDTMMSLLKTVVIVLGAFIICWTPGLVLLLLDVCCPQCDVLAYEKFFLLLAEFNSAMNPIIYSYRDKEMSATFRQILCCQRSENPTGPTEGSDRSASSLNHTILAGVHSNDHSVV

The term IC50 denotes the midpoint of a concentration-inhibition curve. Take `CCc1nc(-c2nnn(C)c2COC(=O)N(C)CCC2CC2)ccc1O[C@H]1CCC[C@H](C(=O)O)C1` [Example 209, (1S,3S)-3-((6-(5-((((2-cyclopropylethyl)(methyl)carbamoyl)oxy)methyl)-1-methyl-1H-1,2,3-triazol-4-yl)-2-ethylpyridin-3-yl)oxy)cyclohexane-1-carboxylic acid]: the concentration for half-maximal inhibition (IC50) under setting [1] worked out at 22 nM.

For the molecule `CCC(F)CN(C)C(=O)OCc1c(-c2ccc(O[C@H]3CCC[C@H](C(=O)O)C3)c(C)n2)nnn1C` (mixture of isomers) [Example 255, (1S,3S)-3-((6-(5-((((2-fluorobutyl)(methyl)carbamoyl)oxy)methyl)-1-methyl-1H-1,2,3-triazol-4-yl)-2-methylpyridin-3-yl)oxy)cyclohexane-1-carboxylic acid], the IC50 under setting [1] was 57 nM. Turning to `CCCC1CCN(C(=O)OCc2c(-c3ccc(O[C@H]4CCC[C@H](C(=O)O)C4)c(C)n3)nnn2C)C1` (mixture of isomers) [Example 166, (1S,3S)-3-((2-methyl-6-(1-methyl-5-(((3-propylpyrrolidine-1-carbonyl)oxy)methyl)-1H-1,2,3-triazol-4-yl)pyridin-3-yl)oxy)cyclohexane-1-carboxylic acid], the IC50 (human LPA1) came out at 109 nM.

As for `Cc1nc(-c2nnn(C)c2COC(=O)N(C)CC2CCOC2)ccc1O[C@H]1CCC[C@H](C(=O)O)C1` (stereo partly drawn) [Example 126, (1S,3S)-3-((2-methyl-6-(1-methyl-5-(((methyl((tetrahydrofuran-3-yl)methyl)carbamoyl)oxy)methyl)-1H-1,2,3-triazol-4-yl)pyridin-3-yl)oxy)cyclohexane-1-carboxylic acid], the IC50 was found to be 346 nM.

Take `CN(Cc1ccccc1)C(=O)OCc1c(-c2ccc(O[C@H]3CCC[C@H](C(=O)O)C3)cn2)nnn1C` [Example 22, (1S,3S)-3-((6-(5-(((benzyl(methyl)carbamoyl)oxy)methyl)-1-methyl-1H-1,2,3-triazol-4-yl)pyridin-3-yl)oxy)cyclohexane-1-carboxylic acid]: the half-maximal inhibitory concentration (IC50) turned out to be 18 nM.

For `Cc1nc(-c2nnn(C)c2COC(=O)N(C)CCc2ccccc2)ccc1O[C@H]1CCC[C@H](C(=O)O)C1` [Example 103, (1S,3S)-3-((2-methyl-6-(1-methyl-5-(((methyl(phenethyl)carbamoyl)oxy)methyl)-1H-1,2,3-triazol-4-yl)pyridin-3-yl)oxy)cyclohexane-1-carboxylic acid], the IC50 is 119 nM.

For the molecule `Cc1nc(-c2nnn(C)c2COC(=O)N(C)C(C)(C)C)ccc1O[C@H]1CCC[C@H](C(=O)O)C1` [Example 170, (1S,3S)-3-((6-(5-(((tert-butyl(methyl)carbamoyl)oxy)methyl)-1-methyl-1H-1,2,3-triazol-4-yl)-2-methylpyridin-3-yl)oxy)cyclohexane-1-carboxylic acid], where the note is “human LPA1”, the IC50 is 183 nM.

In the case of `Cc1nc(-c2nnn(C)c2COC(=O)N(C)CC2CCC2)ccc1O[C@H]1CCC[C@H](C(=O)NS(C)(=O)=O)C1` [Example 17, (1-methyl-4-(6-methyl-5-(((1S,3S)-3-((methylsulfonyl)carbamoyl)cyclohexyl)oxy)pyridin-2-yl)-1H-1,2,3-triazol-5-yl)methyl (cyclobutylmethyl)(methyl)carbamate], the 50% inhibitory concentration (IC50) under setting [1] came to 352 nM. The same measure, in the same setting: the value for `CCc1nc(-c2nnn(C)c2COC(=O)N(C)C23CC(C2)C3)ccc1O[C@H]1CCC[C@H](C(=O)O)C1` [Example 206, (1S,3S)-3-((6-(5-(((bicyclo[1.1.1]pentan-1-yl(methyl)carbamoyl)oxy)methyl)-1-methyl-1H-1,2,3-triazol-4-yl)-2-ethylpyridin-3-yl)oxy)cyclohexane-1-carboxylic acid] was 34 nM; that for `CCc1nc(-c2nnn(C)c2COC(=O)N2CCC3(CC3)C2)ccc1O[C@H]1CCC[C@H](C(=O)O)C1` [Example 211, (1S,3S)-3-((6-(5-(((5-azaspiro[2.4]heptane-5-carbonyl)oxy)methyl)-1-methyl-1H-1,2,3-triazol-4-yl)-2-ethylpyridin-3-yl)oxy)cyclohexane-1-carboxylic acid] was 47 nM. In the case of `Cc1nc(-c2nnn(C)c2COC(=O)N2CC3(CCCC3)C2)ccc1O[C@H]1CCC[C@H](C(=O)O)C1` [Example 159, (1S,3S)-3-((6-(5-(((2-azaspiro[3.4]octane-2-carbonyl)oxy)methyl)-1-methyl-1H-1,2,3-triazol-4-yl)-2-methylpyridin-3-yl)oxy)cyclohexane-1-carboxylic acid], the half-inhibitory concentration (IC50) (human LPA1) came to 162 nM. In the case of `CN(CC1CCC1)C(=O)OCc1c(-c2ccc(O[C@H]3CCC[C@H](C(=O)O)C3)c(C(C)(C)O)n2)nnn1C` [Example 271, (1S,3 S)-3-((6-(5-((((cyclobutylmethyl)(methyl)carbamoyl)oxy)methyl)-1-methyl-1H-1,2,3-triazol-4-yl)-2-(2-hydroxypropan-2-yl)pyridin-3-yl)oxy)cyclohexane-1-carboxylic Acid], the IC50 under setting [1] was found to be 225 nM. Turning to `[2H]C([2H])([2H])n1nnc(-c2ccc(O[C@H]3CCC[C@H](C(=O)O)C3)cn2)c1COC(=O)N(C)CC1CC1` [Example 110, (1S,3S)-3-((6-(5-((((cyclopropylmethyl)(methyl)carbamoyl)oxy)methyl)-1-(methyl-d3)-1H-1,2,3-triazol-4-yl)pyridin-3-yl)oxy)cyclohexane-1-carboxylic acid], the IC50 was 31 nM. As to `CCCN(C)C(=O)OCCc1c(-c2ccc(O[C@H]3CCC[C@H](C(=O)O)C3)c(C)n2)nnn1C` [Example 242, (1S,3S)-3-((2-Methyl-6-(1-methyl-5-(2-((methyl(propyl)carbamoyl)oxy)-ethyl)-1H-1,2,3-triazol-4-yl)pyridin-3-yl)oxy)cyclohexane-1-carboxylic acid], the IC50 under setting [1] turned out to be 319 nM. Still for that read-out and setting: the value for `CCCC1(N(C)C(=O)OCc2c(-c3ccc(O[C@H]4CCC[C@H](C(=O)O)C4)c(CC)n3)nnn2C)CC1` [Example 207, (1S,3S)-3-((2-ethyl-6-(1-methyl-5-(((methyl(1-propylcyclopropyl)carbamoyl)oxy)methyl)-1H-1,2,3-triazol-4-yl)pyridin-3-yl)oxy)cyclohexane-1-carboxylic acid] was 133 nM; that for `Cc1nc(-c2nnn(C)c2CCOC(=O)N(C)CC(C)C)ccc1O[C@H]1CCC[C@H](C(=O)O)C1` [Example 245, (1S,3S)-3-((6-(5-(2-((Isobutyl-(methyl)carbamoyl)oxy)ethyl)-1-methyl-1H-1,2,3-triazol-4-yl)-2-methylpyridin-3-yl)oxy)cyclohexane-1-carboxylic acid] was 69 nM.

`Cc1nc(-c2nnn(C)c2COC(=O)N(C)Cc2cnccn2)ccc1O[C@H]1CCC[C@H](C(=O)O)C1` [Example 123, (1S,3S)-3-((2-methyl-6-(1-methyl-5-(((methyl(pyrazin-2-ylmethyl)carbamoyl)oxy)methyl)-1H-1,2,3-triazol-4-yl)pyridin-3-yl)oxy)cyclohexane-1-carboxylic acid]: the IC50 is 618 nM. Regarding `Cc1nc(-c2nnn(C)c2COC(=O)N(C)CCC2CC2)ccc1O[C@H]1CCC[C@H](C(=O)O)C1` [Example 162, (1S,3S)-3-((6-(5-((((2-cyclopropylethyl)(methyl)carbamoyl)oxy)methyl)-1-methyl-1H-1,2,3-triazol-4-yl)-2-methylpyridin-3-yl)oxy)cyclohexane-1-carboxylic acid], the IC50 (human LPA1) came out at 34 nM.

Consider `CCN(CC1CCC1)C(=O)OCc1c(-c2ccc(O[C@H]3CCC[C@H](C(=O)O)C3)c(C)n2)nnn1C` [Example 113, (1S,3S)-3-((6-(5-((((cyclobutylmethyl)(ethyl)carbamoyl)oxy)methyl)-1-methyl-1H-1,2,3-triazol-4-yl)-2-methylpyridin-3-yl)oxy)cyclohexane-1-carboxylic acid], for which the IC50 stood at 15 nM. Still for that read-out and setting: the value for `Cc1nc(-c2nnn(C)c2COC(=O)N(C)C(C2CC2)C2CC2)ccc1O[C@H]1CCC[C@H](C(=O)O)C1` [Example 86, (1S,3S)-3-((6-(5-((((Dicyclopropylmethyl)(methyl)carbamoyl)oxy)methyl)-1-methyl-1H-1,2,3-triazol-4-yl)-2-methylpyridin-3-yl)oxy)cyclohexanecarboxylic acid] was 54 nM.

On to `Cc1nc(-c2nnn(C)c2CCOC(=O)N(C)Cc2ccccc2)ccc1O[C@H]1CCC[C@H](C(=O)O)C1` [Example 244, (1S,3S)-3-((6-(5-(2-((Benzyl(methyl)-carbamoyl)oxy)ethyl)-1-methyl-1H-1,2,3-triazol-4-yl)-2-methylpyridin-3-yl)oxy)cyclohexane-1-carboxylic acid], for which the concentration for half-maximal inhibition (IC50) under setting [1] was 54 nM. `CN(CCC1CC1)C(=O)OCc1c(-c2ccc(O[C@H]3CCC[C@H](C(=O)O)C3)cc2)nnn1C` (racemic) [Example 55, (rac)-trans-3-(4-(5-((((2-cyclopropylethyl)(methyl)carbamoyl)oxy)methyl)-1-methyl-1H-1,2,3-triazol-4-yl)phenoxy)cyclohexane-1-carboxylic acid]: the half-inhibitory concentration (IC50) is 41 nM.

Turning to `[2H]C([2H])([2H])N(CCC)C(=O)OCc1c(-c2ccc(O[C@H]3CCC[C@H](C(=O)O)C3)c(C)n2)nnn1C` [Example 288, (1S,3S)-3-((2-methyl-6-(1-methyl-5-((((methyl-d3)(propyl)carbamoyl)oxy)methyl)-1H-1,2,3-triazol-4-yl)pyridin-3-yl)oxy)cyclohexane-1-carboxylic acid], the 50% inhibitory concentration (IC50) under setting [1] amounted to 29 nM.
